From US10676485B2, “Macrocyclic MCL-1 inhibitors and methods of use” (AbbVie Inc., priority 2017, dated 2020)
Like-named read-outs stand apart in the source and are kept apart here.

Columns and labels:
AMO-1 xenograft = AMO-1 xenograft model of multiple myeloma; format: in vivo; details: Mus musculus, AMO1, 25 mg/kg/day, IP, QDx1, SCID/bg mice; for change in vivo at 25 mg/kg: read-out: TGD (%); for inhibition in vivo at 25 mg/kg: read-out: TGImax (%)
Method: Tumors were size matched at approximately 200 mm^3. […] Tumor volume was estimated two to three times weekly. […] Mice were euthanized when tumor volume reached 3,000 mm3 or skin ulcerations occurred. Eight mice were housed per cage. Food and water were available ad libitum.
Tumor growth inhibition is calculated by 100*(1−Tv/Cv) where Tv and Cv are the mean tumor volumes of the treated and control groups, respectively.

[1] = tested on: NCI-H929 human multiple myeloma tumor cell line; experiment: NCI-H929 cell viability assay (CellTiter-Glo); format: cell-based; details: NCI-H929, read-out: H929 Viability IC50 (μM), 10% FBS, 24 hours of compound treatment
Method: (§1) In one exemplary set of conditions, NCI-H929 or AMO-1 (ATCC. Manassas, Va.) were plated 4.000 cells per well in 384-well tissue culture plates (Corning. Corning, N.Y.) in a total volume of 25 μL RPMI tissue culture medium supplemented with 10% fetal bovine serum (Sigma-Aldrich, St. Louis, Mo.) and treated with a 3-fold serial dilution of the compounds of interest with a Labcyte Echo from a final concentration of 10 μM to 0.0005 μM. Each concentration was tested in duplicate at least 3 independent times. A luminescent signal proportional to the number of viable cells following 24 hours of compound treatment was determined using the CellTiter-Glo® Luminescent Cell Viability Assay according to the manufacturer's recommendations (Promega Corp., Madison, Wis.). The plates were read in a Perkin Elmer Envision using a Luminescence protocol. To generate dose response curves the data is normalized to percent viability by setting the averages of the staurosporine (10 uM) and DMSO only control wells to 0% and (00)% viability respectively. The IC50 values for the compounds are generated by fitting the normalized data with Accelrys Assay Explorer 3.3 to a sigmoidal curve model using linear regression.

[2] = tested on: AMO-1 human multiple myeloma tumor cell line; experiment: AMO-1 cell viability assay (CellTiter-Glo); format: cell-based; details: AMO1, read-out: AMO-1 Viability IC50 (μM), 10% FBS, 24 hours of compound treatment
Method: as §1

GST-MCL-1 = GST-MCL-1 (Homo sapiens (Human), UniProt Q07820); experiment: TR-FRET MCL-1 binding assay (competition with probe F-Bak)
Outline: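 Compounds as 11 three-fold dilutions from 25 μM with GST-MCL-1, F-Bak probe and Tb-anti-His antibody, 2 h at room temperature. TR-FRET at 340 nm excitation, 520/525 nm (F-Bak) and 495/510 nm (Tb) emission. Run without human serum and with 10% HS.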

[3] = read-out: MCL-1 Binding Ki (nM, 10% HS), in the presence of 10% HS
[4] = without HS, read-out: MCL-1 Binding Ki

GST-MCL-1, sequence (Q07820 whole entry): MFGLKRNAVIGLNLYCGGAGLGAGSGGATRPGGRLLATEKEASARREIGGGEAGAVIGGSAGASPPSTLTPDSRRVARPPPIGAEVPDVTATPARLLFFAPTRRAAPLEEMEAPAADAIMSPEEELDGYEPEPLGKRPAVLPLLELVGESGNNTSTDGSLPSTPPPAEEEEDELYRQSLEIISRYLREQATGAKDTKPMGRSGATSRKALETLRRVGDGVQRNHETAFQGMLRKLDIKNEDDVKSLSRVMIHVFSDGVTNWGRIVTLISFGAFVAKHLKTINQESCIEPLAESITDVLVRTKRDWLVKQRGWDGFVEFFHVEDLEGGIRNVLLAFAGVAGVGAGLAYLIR

| Structure (SMILES) | change in vivo at 25 mg/kg (AMO-1 xenograft) | inhibition in vivo at 25 mg/kg (AMO-1 xenograft) | IC50 [1] | IC50 [2] | Ki (GST-MCL-1; [3]) | Ki (GST-MCL-1; [4]) |
| --- | --- | --- | --- | --- | --- | --- |
| Cc1c(Cl)c2c(Cl)c(C)c1-c1c(-c3ccc(F)cc3)sc3ncnc(c13)O[C@@H](C(=O)O)Cc1cc(ccc1OCc1ccnc(-c3ccccc3OCC3COC(C)(C)O3)n1)OC[C@@H](CN1CCN(C)CC1)O2 (stereo in doubt) [Example 3, (7R,16R)-19,23-dichloro-10-{[2-(2-{[(4R)-2,2-dimethyl-1,3-dioxolan-4-yl]methoxy}phenyl)pyrimidin-4-yl]methoxy}-1-(4-fluorophenyl)-20,22-dimethyl-16-[(4-methylpiperazin-1-yl)methyl]-7,8,15,16-tetrahydro-18,21-etheno-13,9-(metheno)-6,14,17-trioxa-2-thia-3,5-diazacyclononadeca[1,2,3-cd]indene-7-carboxylic acid] | 58% | 75% | 0.0037 µM | 0.00026 µM | 0.365 nM | 0.033 nM |
| Cc1c(Cl)c2c(Cl)c(C)c1-c1c(-c3ccc(F)cc3)sc3ncnc(c13)O[C@@H](C(=O)O)Cc1cc(ccc1OCc1ccnc(N3CCC(F)(COC[C@@H]4COCCO4)CC3)n1)OC[C@@H](CN1CCN(C)CC1)O2 [Example 8, (7R,16R)-19,23-dichloro-10-({2-[4-({[(2S)-1,4-dioxan-2-yl]methoxy}methyl)-4-fluoropiperidin-1-yl]pyrimidin-4-yl}methoxy)-1-(4-fluorophenyl)-20,22-dimethyl-16-[(4-methylpiperazin-1-yl)methyl]-7,8,15,16-tetrahydro-18,21-etheno-13,9-(metheno)-6,14,17-trioxa-2-thia-3,5-diazacyclononadeca[1,2,3-cd]indene-7-carboxylic acid] | 46% | 79% | 0.00176 µM | 0.00086 µM | 2.27 nM | 0.194 nM |
| Cc1c(Cl)c2c(Cl)c(C)c1-c1c(-c3ccc(F)cc3)sc3ncnc(c13)O[C@@H](C(=O)O)Cc1cc(ccc1OCc1ccnc(-c3ccc(OC[C@@H]4COCCO4)cc3)n1)OC[C@@H](CN1CCN(C)CC1)O2 [Example 7, (7R,16R)-19,23-dichloro-10-{[2-(4-{[(2S)-1,4-dioxan-2-yl]methoxy}phenyl)pyrimidin-4-yl]methoxy}-1-(4-fluorophenyl)-20,22-dimethyl-16-[(4-methylpiperazin-1-yl)methyl]-7,8,15,16-tetrahydro-18,21-etheno-13,9-(metheno)-6,14,17-trioxa-2-thia-3,5-diazacyclononadeca[1,2,3-cd]indene-7-carboxylic acid] | 477% | 99% | 0.000406 µM | 0.000171 µM | 0.92 nM | 0.036 nM |
| Cc1c(Cl)c2c(Cl)c(C)c1-c1c(-c3ccc(F)cc3)sc3ncnc(c13)O[C@@H](C(=O)O)Cc1cc(ccc1OCc1ccnc(-c3ccc(OC[C@H]4COC(C)(C)O4)cc3)n1)OC[C@@H](CN1CCN(C)CC1)O2 [Example 1, (7R,16R)-19,23-dichloro-10-{[2-(4-{[(4S)-2,2-dimethyl-1,3-dioxolan-4-yl]methoxy}phenyl)pyrimidin-4-yl]methoxy}-1-(4-fluorophenyl)-20,22-dimethyl-16-[(4-methylpiperazin-1-yl)methyl]-7,8,15,16-tetrahydro-18,21-etheno-13,9-(metheno)-6,14,17-trioxa-2-thia-3,5-diazacyclononadeca[1,2,3-cd]indene-7-carboxylic acid] | 133% | 95% | 0.00502 µM | 0.00031 µM | 0.582 nM | 0.042 nM |
| Cc1c(Cl)c2c(Cl)c(C)c1-c1c(C3=CCCC3)sc3ncnc(c13)O[C@@H](C(=O)O)Cc1cc(ccc1OCc1ccnc(C3=CC[C@](F)(COC[C@H]4COCCO4)CC3)n1)OC[C@@H](CN1CCN(C)CC1)O2 [Example 34, (7R,16R)-19,23-dichloro-1-(cyclopent-1-en-1-yl)-10-({2-[(4S)-4-({[(2R)-1,4-dioxan-2-yl]methoxy}methyl)-4-fluorocyclohex-1-en-1-yl]pyrimidin-4-yl}methoxy)-20,22-dimethyl-16-[(4-methylpiperazin-1-yl)methyl]-7,8,15,16-tetrahydro-18,21-etheno-13,9-(metheno)-6,14,17-trioxa-2-thia-3,5-diazacyclononadeca[1,2,3-cd]indene-7-carboxylic acid] |  |  | 0.001 µM | 0.000235 µM | 0.54 nM | 0.03 nM |
| Cc1c(Cl)c2c(Cl)c(C)c1-c1c(-c3ccc(F)cc3)sc3ncnc(c13)O[C@@H](C(=O)O)Cc1cc(ccc1OCc1ccnc([C@H]3CC[C@@](F)(COC[C@H]4COCCO4)CC3)n1)OC[C@@H](CN1CCN(C)CC1)O2 [Example 47, (7R,16R)-19,23-dichloro-10-({2-[(1R,4r)-4-({[(2R)-1,4-dioxan-2-yl]methoxy}methyl)-4-fluorocyclohexyl]pyrimidin-4-yl}methoxy)-1-(4-fluorophenyl)-20,22-dimethyl-16-[(4-methylpiperazin-1-yl)methyl]-7,8,15,16-tetrahydro-18,21-etheno-13,9-(metheno)-6,14,17-trioxa-2-thia-3,5-diazacyclononadeca[1,2,3-cd]indene-7-carboxylic acid] |  |  | 0.000344 µM | 0.000463 µM | 0.521 nM | 0.0133 nM |
| Cc1c(Cl)c2c(Cl)c(C)c1-c1c(-c3ccc(F)cc3)sc3ncnc(c13)O[C@@H](C(=O)O)Cc1cc(ccc1OCc1ccnc(-c3ccc(OC[C@@H]4COCCO4)nc3)n1)OC[C@@H](CN1CCN(C)CC1)O2 [Example 6, (7R,16R)-19,23-dichloro-10-{[2-(6-{[(2S)-1,4-dioxan-2-yl]methoxy}pyridin-3-yl)pyrimidin-4-yl]methoxy}-1-(4-fluorophenyl)-20,22-dimethyl-16-[(4-methylpiperazin-1-yl)methyl]-7,8,15,16-tetrahydro-18,21-etheno-13,9-(metheno)-6,14,17-trioxa-2-thia-3,5-diazacyclononadeca[1,2,3-cd]indene-7-carboxylic acid] |  |  | 0.000359 µM | 0.000135 µM | 6.09 nM | 0.926 nM |
| Cc1c(Cl)c2c(Cl)c(C)c1-c1c(-c3ccc(F)cc3)sc3ncnc(c13)O[C@@H](C(=O)O)Cc1cc(ccc1OCc1ccnc(-c3ccc(NC[C@@H]4COCCO4)nc3)n1)OC[C@@H](CN1CCN(C)CC1)O2 [Example 41, (7R,16R)-19,23-dichloro-10-({2-[6-({[(2R)-1,4-dioxan-2-yl]methyl}amino)pyridin-3-yl]pyrimidin-4-yl}methoxy)-1-(4-fluorophenyl)-20,22-dimethyl-16-[(4-methylpiperazin-1-yl)methyl]-7,8,15,16-tetrahydro-18,21-etheno-13,9-(metheno)-6,14,17-trioxa-2-thia-3,5-diazacyclononadeca[1,2,3-cd]indene-7-carboxylic acid] |  |  | 0.000595 µM | 0.000589 µM | 0.14 nM | 0.009 nM |
